Assay results taken from US20170367338A1, “COMPOSITIONS AND METHODS FOR IMPROVING AGRONOMIC CHARACTERISTICS OF PLANTS” (MONSANTO TECHNOLOGY LLC, priority 2014, published 2017).
Converted amounts (≈) assume the structure as drawn. Where two headings read alike, the source gives them in different places. Marks after values point to notes of the source that are not given here.

Key:
[1] = assay type: in vivo; conditions: 500 mg/kg oral, three female mice, observed up to 14 days
Experimental: Acute oral toxicity testing was performed in mice in accordance with test method P203.UDP, as administered by Eurofins/Product Safety Laboratories (Dayton, New Jersey). CD-1/Swiss derived albino mice were obtained and group housed in suspended solid bottom caging. The mice were fed rodent chow and filtered tap water was supplied ad libitum. Following acclimation to the laboratory setting, a group of animals was fasted overnight by removing food from the cages. After the fasting period, three female mice were selected based on vitality and initial body weights. The individual compound doses were calculated from these body weights.
The test substance was prepared as a 1% (50 mg/kg) or 5% (500 mg/kg) weight to weight (w/w) mixture in a 0.5% w/w solution of carboxymethylcellulose (CMC) in distilled water. A tissue homogenizer was used to create a homogeneous mixture. A dose of 50 or 500 mg/kg was administered to three healthy mice per dose level by oral intubation using a ball-tipped gavage needle attached to a syringe. After administration, the animals were returned to their cages, and feed was replaced immediately after dosing.
Body weights were recorded prior to initiation and on Days 7 and 14 or a soon as possible after death.

Meloidogyne incognita [2] = experiment: Summer field evaluation of pre-plant incorporated compounds on squash; assay type: in vivo
Experimental: Test plots of 33 cm diameter holes were bored 41 cm deep into clay soil and filled with a mixture of 80% sand and 20% silt loam soil. Technical compound for each treatment was dissolved in 50 ml acetone containing 250 ul of Triton X-100 surfactant. This solution was added to 450 ml water and poured onto 95 liters of sand/soil mixture in a rotating drum mixer. While continuing to rotate the mixing drum 66 grams of chopped, galled, tomato roots was added and thoroughly distributed. The treated soil was sufficient to fill the top 15 cm of each of the 6 replicate plots, thus simulating a PPI treatment. The plots were then watered lightly and a mixture of M. incognita eggs and larvae were injected 5 cm deep at 5 points within the plot (100k eggs/larvae in 10m1 per plot). Three-week old squash (cv. Liberator III) with 1 fully expanded true leaf was planted 4 days after soil treatment, one per plot.

Meloidogyne incognita [3] = experiment: M. incognita miniaturized greenhouse assay on cucumber seedlings; assay type: in vivo
Experimental: The test compound is dissolved in an acetone solution and added to water. A sprouted cucumber seedling is placed into a vial with dry sand and the water-chemical solution is added immediately. Twenty four hours later Meloidogyne incognita eggs are added to the vials and 10 to 12 days later the roots are evaluated for nematode galling.
Cucumber seeds are sprouted for 3 days in moist paper towels. Acceptable sprouts should be 3 to 4 cm long with several lateral roots just emerging. Stock solutions of chemistry are prepared in a mixture of acetone and Triton X100 (412 mg in 500 mL) to a final concentration of 5 mg/mL. The chemical stock solution is then added to 10 mL deionized water plus 0.015% Triton X100 and mixed thoroughly. This is enough to test each condition in triplicate. Ten mL dry sand is added to each vial. At this time the solubility of the chemistry is visually determined and recorded as either ppt (large precipitates) or cloudy (fine precipitates). Seedlings are planted by tilting the vial and laying the seedling in the correct orientation so that the cotyledons are just above the sand and then tilting back to cover the radicles with sand. 3.3 ml water/chemical mix is added to each vial and the vials placed in racks under fluorescent light banks. The vials are inoculated two days after planting by adding 500 vermiform M. incognita eggs to each vial in 50 uL of deionized or spring water. The vials are then kept under the fluorescent lamps at ambient room temperature and watered as needed with 1mL deionized water, usually twice during duration of test. Harvest of the cucumber plants is done 10 to 12 days after inoculation by washing sand off the roots. A root gall rating and visual phytotoxicity rating is assigned using the following scales: Gall rating scale (Gall: % root mass galled): 0=0-5%; 1=6-20%; 2=21-50%; and 3=51-100%. The average of the triplicate gall rating is then calculated: green=0.00-0.33 (no galls); yellow=0.67-1.33 (mild galling); orange=1.67-2.33 (moderate galling); red=2.67-3.00 (severe galling). Visual phytotoxicity scale is also assigned (Vis. tox; visual reduction in root mass compared to the control): rs1=mild stunting; rs2=moderate stunting; rs3=severe stunting.

[4] = tested on: soybean cyst nematode (SCN); experiment: SCN greenhouse sand assay on soybean plants; assay type: in vivo; conditions: Glycine max, 672 h, read-out: percent control (cyst number reduction) relative to the control blank treatment; for pest or weed control at 2000 g/ha: 2 kg/ha
From the text: Soybeans seeds are planted in 100% sand in two inch square plastic pots. Chemical treatment is done when the soybeans show the first trifoliate beginning to emerge about 10 to 12 days after planting. At least four hours after chemical application the nematode soybean cyst nematode (SCN) eggs are applied and 28 days after the egg inoculation the test is harvested.
One milligram of chemistry per four pots is equal to one kilogram per hectare of chemical. A standard test uses four replications. For rates above 2 kg/ha, the desired amount of chemical is weighed into a 30 ml vial (example: 8 kg/ha rate =8 mg chemical in 30 ml vial). The chemical is dissolved in 2 ml of appropriate solvent, generally acetone. For rates below 2 kg/ha, 2 milligrams of chemistry is weighed into the vial and dissolved in 2 ml of the solvent. The appropriate amount of chemical concentrate is then pipetted into a separate 30 ml vial and solvent is added to bring the volume to 2 ml (example 0.5 kg/ha=0.5 ml of concentrate+1.5 ml solvent). Each dissolved concentrate is then brought to a total of 20 milliliters using 0.05% Triton X 100 surfactant solution.
Pots to be treated are moist but not saturated. To each of four pots, five milliliters of the appropriate chemical solution is pipetted to the media surface making sure to avoid contact with the base of the plant. Immediately following chemical application, using a mist nozzle, the pot surface is wetted sufficiently to saturate the pot watering in the chemistry. The chemical application is done in the morning.
Nematode eggs, either SCN or RKN, are added to distilled water to create a concentration of 1000 vermiform eggs […]. At least four hours after chemical treatment the eggs are applied to the treated pots plus non-treated check plants. A small hole about 1 cm deep is punched into the pot surface. One milliliter of the nematode egg slurry is pipetted into the hole. Immediately afterwards the hole is gently covered. Watering of the test plants is then restricted to only water as needed to prevent wilt for a period of 24 hours. After the 24 hour restricted watering, normal sub-irrigation watering is done for the duration of the test.

Meloidogyne incognita [5] = experiment: Fall nematicidal field test on squash; conditions: for RW28 root weight at 28 days after treatment / RW43 root weight at 43 days after treatment / TW28 top weight at 28 days after treatment / RG28 % root galls at 28 days after treatment / RG43 % root galls at 43 days after treatment: squash
From the text: The soil was a native prairie/pasture covering silty clay loam soil. […] Total volume of each hole was about 1.2 cubic feet. […] Holes were filled and then re-filled 5 days later after settling. […] Organic matter was 0.2% and pH was 6.8.
Treatments were arranged in a block design with the blocks laid out perpendicular to the primary slope and parallel to secondary slope. There are 7 inoculated controls and 5 non-inoculated controls and the distributions of disease severity appeared independent of location.
The resultant mix is the same as used in the standard greenhouse assays (10% acetone, 0.05% X100). The oxamyl treatments were prepared from Vydate 2L formulated the same way. The 500 ml was placed in a watering can and the entire volume was evenly sprinkled over the surface of the plot. No runoff occurred and pooling, if any, was short lived. The final drench volume was 0.58 ml/cm^2, compared to 0.2 ml/cm^2 used in our greenhouse, however the microplots are much deeper so the drench volume applied per soil volume treated is roughly the same.
Meloidogyne incognita eggs were harvested over a two week period and stored at approximately 5° C. until needed. A stock of 5.6 million vermiform eggs was adjusted to 9000/m1 in 620 ml. One day after treatment, two holes were made in each plot about 7 cm apart and equidistant from the squash plants. Five ml of egg suspension was pipetted into each hole, which was then sealed and the plot lightly watered. A total of 90,000 vermiform eggs were added to each plot.
The first root evaluation was at 28 DAT. The tops were cut off and weighed immediately in the field, and the roots were carefully dug out so as not to disturb the remaining plant.

[6] = tested on: Heterodera glycines (SCN); experiment: Seed treatment test of soybean cyst nematode on soybean; assay type: in vivo; conditions: Heterodera glycines, 672 h, read-out: percent cyst reduction relative to control blank treatment
Experimental: For a given concentration the chemical is dissolved in 500 ul of acetone and one gram of cucumber seed (RKN test) or soybean seed (SCN test) is added (e.g., 20 mg active ingredient in 500 ul acetone plus 1 gram of seed). The seed solutions are agitated until all seeds were thoroughly covered with the chemical solution. The acetone is then allowed to evaporate by air drying the seeds. The seeds are planted in 2-inch pots containing sandy soil and then the pots are inoculated with 1000 Meloidogyne incognita (RKN) or 1000 Heterodera glycines (SCN) eggs per pot three days after planting. Plants are rated for galling 14 days after egg inoculation for RKN or 28 days after egg inoculation for SCN.

C. elegans = experiment: Three day C. elegans well assay; assay type: in vivo; conditions: Caenorhabditis elegans, L1 larvae
Experimental: Various compounds were tested for nematicidal activity against C. elegans using contact assays in wells. The assays were performed as described below. The test compounds were solubilized in DMSO at 10 mg/ml to create 100× stock solutions. A dilution series was created by diluting the stock solution with DMSO. For each well assay 4 ul of the appropriate dilution is added to a well of a test plate. A 400 ul aliquot of bacterial stock (in M9 buffer with ampicillin and nystatin) are added to each well of the test plate. Worms are added and the test plate placed on a rotary shaker and held at 20° C. Worms are examined and scored at 4 hrs, 24 hrs, 48 hrs and 72 hours. L1 worms and L4 worms were used in the assay. L1 worms are prepared by plating eggs on a plate without a bacterial feeding layer. The eggs hatch and arrest at the L1 stage. This L1 stage population is then used to create a stock for the experiments. To create an L4 stage stock a small number of worms are taken from an overgrown and starved plate of worms and seeded on a plate with a bacterial feeder layer. A 25 ul aliquot of worms is added to each well in the assay.

Clc1ccc(-c2nsc(-c3ccco3)n2)c(Cl)c1 [compound 5960]
acute oral toxicity: mortality and signs [1]: all animals survived
control of M. incognita by PPI application (Meloidogyne incognita [2]; 4 kg/ha): significant control

Cc1occc1-c1nc(-c2ccc(Cl)cc2)no1 [compound 5867]
1 ppm gall rating (Meloidogyne incognita [3]; Table 1C test a): 1 ^a (1=6-20%)

Clc1ccc(-c2nnc(-c3cccs3)o2)cc1 [compound 4559]
pest or weed control at 2000 g/ha ([4]; test a): 98%
RW28 root weight at 28 days after treatment (Meloidogyne incognita [5]; 2 kg ai/ha): 6.4
RW43 root weight at 43 days after treatment (Meloidogyne incognita [5]; 2 kg ai/ha): 13.2
TW28 top weight at 28 days after treatment (Meloidogyne incognita [5]; 2 kg ai/ha): 150.8
control of root galling compared with oxamyl at an equivalent rate (Meloidogyne incognita [5]; 43 day time point): significantly better than oxamyl

c1cncc(-c2noc(-c3ccco3)n2)c1 [compound 5292]
pest or weed control at 2000 g/ha ([4]; test a): 92%

CNC(=O)O/N=C(\SC)C(=O)N(C)C [Oxamyl]
pest or weed control at 0.375 mg/g [6]: -4%
pest or weed control at 1.5 mg/g [6]: 71%
gall ratings (Meloidogyne incognita [3]; 1 ppm (oxamyl), Table 1A): 0.67
1 ppm gall ratings (Meloidogyne incognita [3]; Table 1B test a): 0.67
1 ppm gall ratings (Meloidogyne incognita [3]; Table 1B test b): 1 (1=6-20%)
1 ppm gall ratings (Meloidogyne incognita [3]; Table 1B test c): 1.33
1 ppm gall ratings (Meloidogyne incognita [3]; Table 1B test d): 1.33
1 ppm gall ratings (Meloidogyne incognita [3]; Table 1B test e): 1 (1=6-20%)
1 ppm gall rating (Meloidogyne incognita [3]; Table 1C test a): 1.33
1 ppm gall rating (Meloidogyne incognita [3]; Table 1C test b): 1 (1=6-20%)
1 ppm gall rating (Meloidogyne incognita [3]; Table 1C test c): 0.67^c
1 ppm gall rating (Meloidogyne incognita [3]; Table 1D test a): 1.33
1 ppm gall rating (Meloidogyne incognita [3]; Table 1D test b): 1 (1=6-20%)
0-3 vigor 16DAP (Meloidogyne incognita [2]; 4 kg/ha PPI, squash): 2.7
0-3 vigor 21DAP (Meloidogyne incognita [2]; 4 kg/ha PPI, squash): 2.5
feeder root (3 = ave) 31DAP (Meloidogyne incognita [2]; 4 kg/ha PPI, squash): 3.0
gall % 31DAP (Meloidogyne incognita [2]; 4 kg/ha PPI, squash): 85%
root wgt (g) 31DAP (Meloidogyne incognita [2]; 4 kg/ha PPI, squash): 37.0 g
top wgt (lbs) 31DAP (Meloidogyne incognita [2]; 4 kg/ha PPI, squash): 1.16 lbs
total fruit (lbs) (Meloidogyne incognita [2]; 4 kg/ha PPI, squash): 1.09 lbs
RG28 % root galls at 28 days after treatment (Meloidogyne incognita [5]; 2 kg ai/ha): 45.0%
RG43 % root galls at 43 days after treatment (Meloidogyne incognita [5]; 2 kg ai/ha): 42.3%
RW28 root weight at 28 days after treatment (Meloidogyne incognita [5]; 2 kg ai/ha): 5.6
RW43 root weight at 43 days after treatment (Meloidogyne incognita [5]; 2 kg ai/ha): 14.3
TW28 top weight at 28 days after treatment (Meloidogyne incognita [5]; 2 kg ai/ha): 136.8
RG28 % root galls at 28 days after treatment (Meloidogyne incognita [5]; 5 kg ai/ha): 10.5%
RG43 % root galls at 43 days after treatment (Meloidogyne incognita [5]; 5 kg ai/ha): 17.3%
RW28 root weight at 28 days after treatment (Meloidogyne incognita [5]; 5 kg ai/ha): 6.6
RW43 root weight at 43 days after treatment (Meloidogyne incognita [5]; 5 kg ai/ha): 12.7
TW28 top weight at 28 days after treatment (Meloidogyne incognita [5]; 5 kg ai/ha): 232.1

c1ccc(-c2cc(-c3ccco3)n[nH]2)cc1 [3-(furan-2-yl)-5-phenyl-1H-pyrazole]
nematicidal activity (Meloidogyne incognita [3]; text reference to table 1D, 8 ppm and 1 ppm): at 8 ppm but not 1 ppm

FC(F)(F)c1cccc(-c2noc(-c3ccco3)n2)c1 [compound 5181]
pest or weed control at 2000 g/ha ([4]; test a): 100%

COc1ccc(-c2noc(-c3ccoc3C)n2)cc1 [compound 5869]
1 ppm gall rating (Meloidogyne incognita [3]; Table 1C test a): 1 ^a (1=6-20%)

Fc1ccc(-c2cnc(-c3cccs3)o2)cc1 [compound 4775]
acute oral toxicity: mortality and signs [1]: all animals survived
pest or weed control at 2000 g/ha ([4]; test b): 95%

Cc1cc(Br)ccc1-c1nsc(-c2ccco2)n1 [compound 5939]
EC50 (C. elegans; 24 h, one day of exposure, read-out: EC50 L1 1D): 0.4 µg/mL (≈ 1.25 µM)
EC50 (C. elegans; 48 h, two days of exposure, read-out: EC50 L1 2D): 0.4 µg/mL (≈ 1.25 µM)
EC50 (C. elegans; 72 h, three days of exposure, read-out: EC50 L1 3D): 0.4 µg/mL (≈ 1.25 µM)
pest or weed control at 100 g/ha ([4]; 0.1 kg/ha, test d): 64%
pest or weed control at 250 g/ha ([4]; 0.25 kg/ha, test d): 88%

c1ccc(-c2cnc(-c3cccs3)o2)cc1 [compound 4417]
acute oral toxicity: mortality and signs [1]: One animal died within four days
pest or weed control at 2000 g/ha ([4]; test b): 94%
RW28 root weight at 28 days after treatment (Meloidogyne incognita [5]; 2 kg ai/ha): 5.3
RW43 root weight at 43 days after treatment (Meloidogyne incognita [5]; 2 kg ai/ha): 16.4
TW28 top weight at 28 days after treatment (Meloidogyne incognita [5]; 2 kg ai/ha): 97.5
Leaf diameter of the first true leaves (Meloidogyne incognita [5]; 2 kg/ha, five days after treatment (5 DAT)): slight reduction
phytotoxicity (Meloidogyne incognita [5]; 2 kg/ha, two days after treatment, squash seedlings): slight phytotoxicity
